Assay results as given in patent US20210093637A1, “TOPICAL OINTMENT FORMULATIONS OF PDE-4 INHIBITOR AND THEIR USE IN TREATING SKIN CONDITIONS” (Dermavant Sciences GmbH, priority 2017, published 2021).

What was measured:
[1] = Phase 2 study RVT-501-2001, plasma concentrations of RVT-501 and M11; assay type: in vivo, human
Text: During the treatment period, subjects applied RVT-501 ointment or vehicle to affected areas twice daily (BID) for 28 days. Subjects returned to the clinic at Day 4 for evaluation, and again at Weeks 1, 2, 3, and 4 for safety and efficacy assessments. Pharmacokinetic samples were collected at Weeks 1 and 4. On clinic visit days (except on the Day 4 visit), subjects applied study drug on-site while under the supervision of site personnel, after efficacy assessments had been completed.
Statistical Methods: Efficacy Analyses: A sample size and power sensitivity analysis was conducted for the efficacy endpoints. Assuming an effect size (defined as difference of mean change from baseline EASI score between treatment groups relative to pooled standard deviation) of 0.7, a sample size of 50 subjects in an active arm and 50 subjects in the combined placebo will provide 93% power at an alpha level of 0.05 (2-sided), based on a 2-sided t-test. The sample size will also allow a difference of 33% between placebo and active treatment in a responder endpoint to be detected with 90% power and a 0.05 significance level assuming the proportion of responders in the placebo group is <=20%. Efficacy endpoints will be summarized and listed by treatment for each age group and both age groups combined; The between-treatment comparisons (active vs placebo and between active dose groups) for continuous efficacy variables will be performed using an analysis of covariance (ANCOVA) model. The between treatment comparisons for the proportion of responders will be compared using a CMH or Chi-square test. Safety Analyses: Adverse events will be mapped to a Medical Dictionary for Regulatory Activities (MedDRA). Treatment emergent adverse events will be summarized by treatment, preferred term and system organ classification. Descriptive summaries of vital signs, ECG parameters, and clinical laboratory results will be presented by study visit and treatment group. Pharmacokinetic Analyses: RVT-501 and M11 plasma concentrations will be listed by subject, treatment, and time; and will be summarized by treatment and time. The number and percent of subjects with a measurable concentration of either analyte at each time point and any time during the study will be provided.
Analysis Populations: Four analysis populations were used for this study. The Safety population, consisting of all subjects enrolled into the study who received study drug, was used for the safety analyses. The intent-to-treat (ITT) population, defined as all subjects randomized to treatment, was the primary population used for the efficacy analyses. The per protocol (PP) population included subjects who applied at least 50% of the doses. The PP population was used for confirmatory analysis of the efficacy variables. The PK population included all subjects who underwent plasma PK sampling and had at least one evaluable PK sample (a concentration reported as below the lower limit of quantitation (LLQ) of the assay was considered an evaluable PK sample).
Pharmacokinetics: Blood samples for PK analysis of RVT-501 and the M11 metabolite will be collected at the time points indicated in Table 1. The actual date and time of each blood sample collection will be recorded as well as the date and time of the last dose of study mediation. The timing of PK samples may be altered and/or PK samples may be obtained at additional time points to ensure thorough PK monitoring.
Pharmacokinetics summary: PK samples were collected pre-dose at Weeks 1 and 4, and 2-4 hrs post-dose at Week 4. […] Three patients had detectable M11 exposure with the highest value at 1.60 ng/mL.

[2] = tested on: pediatric subjects with mild to moderate atopic dermatitis; experiment: Phase 2 study in pediatric patients (Example 6), safety (adverse events); assay type: in vivo, human
Text: Safety Endpoint: Frequency and severity of adverse events (AE; local and systemic).
Analysis Populations: All subjects enrolled in the study who had at least one application of investigational product were included in the Safety Set (SS). This was the population for the safety analyses.
Safety Analyses: The number and proportion of subjects with AEs were summarized by treatment, system organ classification, and preferred term for all adverse events, all adverse events considered by the investigator to be related to study drug, all serious adverse events (SAE), all Common Terminology Criteria for Adverse Events (CTCAE) Grade 3 or higher AEs, and all adverse events leading to study discontinuation. Summaries of AEs were presented separately for the Double-Blind and Open-Label Extension Phases.
Laboratory data were analyzed using descriptive summary statistics and changes from baseline. Categorical safety data were analyzed using frequency tables and, if applicable, shift tables. Vital signs were listed by subjects and summarized by treatment.

[3] = tested on: healthy Japanese male subjects; settings: cited from earlier work
[4] = tested on: Japanese male subjects with AD; settings: ointment 0.01% to 0.2%; cited from earlier work
[5] = tested on: adults with mild to moderate AD; settings: 0.2% ointment BID, 4 weeks; cited from earlier work
[6] = tested on: pediatric subjects aged 2 to 15 years with mild to moderate AD; settings: 0.05% and 0.2% ointment for 2 weeks; cited from earlier work
[7] = single dermal application; stripped skin; non-fasted male rats; cited from earlier work
[8] = Stability of E6005 and M11 in human dried blood spots; assay type: physicochemical
Description: Stability: Following stability of E6005 and M11 in DBS was assessed at low and high concentrations using LQC and HQC samples (three replicates/concentration): bench-top stability for 7 days at room temperature, long-term frozen stability for 160 days […] below −15° C., and processed sample stability for 85 h at 4° C. To investigate impacts of high humidity on the stability, bench-top stability test was performed at room temperature with relative humidity of ca. 80%-84%. Samples were considered stable when % bias from the nominal concentrations was within ±15%.

Structure (SMILES): CNc1nc(-c2cccc(NC(=O)c3ccc(C(=O)OC)cc3)c2)c2cc(OC)c(OC)cc2n1 [RVT-501, methyl N-[3-(6,7-dimethoxy-2-methylaminoquinazolin-4-yl)phenyl]terephthalamic acid]
- highest plasma concentration of RVT-501 ([1]; RVT-501 0.2% group, Week 4): 1.23 ng/mL
- plasma RVT-501 concentration, Subject 18014 (adolescent) ([1]; RVT-501 0.2% group, Week 4, 2 hours post-dose): 1.20 ng/mL
- plasma RVT-501 concentration, Subject 18014 (adolescent) ([1]; RVT-501 0.2% group, Week 4 pre-dose): 1.23 ng/mL
- plasma concentration of RVT-501 ([1]; Week 1 pre-dose, all treatment groups, LLQ): < 1.00 ng/mL
- systemic absorption ([1]; topical 0.2% and 0.5% BID): minimal to no systemic absorption
- subjects with study-drug-related mild application site pruritus ([2]; Double-Blind Phase): 6.1%
- safety and tolerability ([2]; human, in vivo): generally safe and well tolerated
- subjects who experienced SAE (all deemed not related) ([2]; human, in vivo): two
- skin or systemic AEs ([3]; 0.01%-0.2% ointment QD or BID up to 11 days, patch/photopatch): No significant skin or systemic AEs
- skin irritation, adverse events, laboratory values, vital signs, ECG, ophthalmological findings ([3]; ointment 0.01% to 0.2%): no clinically-significant findings
- skin irritation, adverse events, laboratory values, vital signs, ECG, ophthalmological findings [4]: no clinically-significant findings
- tolerability [5]: tolerability was good
- adverse events attributable to the investigational product [6]: no adverse events considered attributable to the investigational product
- radiolabelled RVT-501 in the skin application site 24 hours after administration, relative to levels after 30 minutes [7]: 75%

Structure (SMILES): CNc1nc(-c2cccc(NC(=O)c3ccc(C(=O)O)cc3)c2)c2cc(OC)c(OC)cc2n1 [Formulation M11, 4-((3-(6,7-dimethoxy-2-(methylamino)quinazolin-4-yl)phenyl)carbamoyl)benzoic acid]
- plasma M11 concentration, Subject 18014 (adolescent) ([1]; RVT-501 0.2% group, Week 1 pre-dose): 1.27 ng/mL
- plasma M11 concentration, Subject 03005 (adult) ([1]; RVT-501 0.5% group, Week 1 pre-dose): 1.60 ng/mL
- plasma M11 concentration, Subject 09003 (adult) ([1]; RVT-501 0.5% group, Week 4 pre-dose): 1.09 ng/mL
- highest plasma concentration of M11 metabolite ([1]; all groups, Weeks 1 and 4): 1.60 ng/mL
- % bias ([8]; Bench-top, after 7 days at RT, HQC (160 ng/mL)): 2.5%
- % bias ([8]; Bench-top, after 7 days at RT, LQC (3 ng/mL)): 6.0%
- % bias ([8]; In processed samples, after 85 h at 4° C., HQC (160 ng/mL)): 0.2%
- % bias ([8]; In processed samples, after 85 h at 4° C., LQC (1 ng/mL)): 5.9%
- % bias ([8]; Long-term, after 160 days at RT, HQC (160 ng/mL)): 9.4%
- % bias ([8]; Long-term, after 160 days at RT, LQC (3 ng/mL)): 0.3%
- % bias ([8]; Long-term, after 160 days below −15° C., HQC (160 ng/mL)): −1.3%
- % bias ([8]; Long-term, after 160 days below −15° C., LQC (3 ng/mL)): −1.3%
- % bias ([8]; Under high humidity, after 7 days at humidity 80-84%, HQC (160 ng/mL)): −12.5%
- % bias ([8]; Under high humidity, after 7 days at humidity 80-84%, LQC (3 ng/mL)): −2.3%
